{"source": "patent US8466129B2", "about": "“Method of preventing and treating airway remodeling and pulmonary inflammation using A2B adenosine receptor antagonists” (Gilead Sciences, Inc., priority 2004, dated 2013)", "key": {"[1]": {"test_system": "ADA-deficient (ADA−/−) mice", "assay": "Collagen deposition (Masson's trichrome) and soluble collagen (Sircol assay) in ADA-deficient mice", "type": "in vivo, mouse", "settings": "1 mg/kg ip twice daily for 17 days", "experimental": "(§1) Mice treated by intraperitoneal (ip) injection twice daily with 1 mg/kg 3-ethyl-1-propyl -8-{1-[(3-trifluoromethylphenyl)methyl]pyrazol-4-yl}1,3,7-trihydropurine-2,6-dione. The specific protocol is as follows: ADA-deficient (ADA−/−) or ADA containing (ADA+) mice were identified at birth by screening of ADA enzymatic activity in the blood. ADA−/− mice were maintained on ADA enzyme therapy from postnatal day 2 until postnatal day 21. At this stage, treatments with 3-ethyl-1-propyl-8-{1-[(3-trifluoromethylphenyl)methyl] pyrazol -4-yl}-1,3,7-trihydropurine-2,6-dione or vehicle controls (corn oil/ethanol/DMSO) were initiated. Treatments consisted of an ip injection in the morning (8-9 AM) and in the evening (5-6 pm). Treatments were given daily for 17 days, and the experiment was terminated on postnatal day 38. Treatment groups included ADA−/− or ADA+mice receiving 3-ethyl-1-propyl-8-{1-[(3-trifluoromethylphenyl)methyl]pyrazol-4-yl}-1,3,7-trihydropurine-2,6-dione, vehicle, or no treatment. All mice were littermates and were therefore strain matched. Both males and females were included in these experiments. At the termination of the experiment, serum was collected for pharmacokinetics (PK) analysis of 3-ethyl-1-propyl -8-{1-[(3-trifluoromethylphenyl)methyl]pyrazol-4-yl}-1,3,7-trihydropurine -2,6-dione levels and various pulmonary endpoints were examined.\nMice were anesthetized with avertin, and lungs were lavaged four times with 0.3 ml PBS, and 0.95-1 ml of pooled lavage fluid was recovered. Total cell counts were determined using a hemocytometer, and aliquots were cytospun onto microscope slides and stained with Diff-Quick (Dade Nehring) for cellular differentials. Lungs were then infused with 4% paraformaldehyde in PBS at 25 cm of pressure and then fixed overnight at 4° C. Fixed lung samples were rinsed in PBS, dehydrated, and embedded in paraffin. Sections (5 μm) were collected on microscope slides and stained with hematoxylin and eosin (H&E; Shandon-Lipshaw) or Masson's trichrome (EM Science), according to manufacturer's instructions. […]"}, "[2]": {"test_system": "ADA-deficient (ADA−/−) mice", "assay": "General health and lung histology (H&E) in the ADA-deficient mouse model of adenosine-dependent pulmonary injury", "type": "in vivo", "settings": "1 mg/kg ip twice daily for 17 days", "from_the_text": "The model system being used is the adenosine deaminase (ADA)-deficient mouse model of adenosine-dependent pulmonary injury. In this model, elevations in adenosine are associated with increased pulmonary inflammation and airway remodeling. Many of the features seen in these mice resemble those observed in patients with various forms of chronic lung disease including severe asthma, COPD and pulmonary fibrosis. The approach is to treat these mice with the A2B AR antagonist 3-ethyl-1-propyl-8-{1-[(3-trifluoromethylphenyl)methyl]pyrazol -4-yl}-1,3,7-trihydropurine-2,6-dione as a means to probe A2BAR contributions to pulmonary inflammation and injury in ADA-deficient mice, which should provide insight into the efficacy of this drug for the treatment of chronic lung diseases.\nas §1\nADA-deficient mice were generated and genotyped as described (Blackburn et al. (1998) J Biol Chem 273:5093-5100 and Young et al. (2004) J. Immunol. 173:1380-1389. Mice homozygous for the null Ada allele were designated ADA-deficient (ADA^−/−), while mice heterozygous for the null Ada allele were designated as ADA control mice (ADA^+). All mice were on a mixed 129sv/C57BL/6J background and all phenotypic comparisons were performed amongst littermates. Animal care was in accordance with institutional and NIH guidelines. Mice were housed in ventilated cages equipped with microisolator lids and maintained under strict containment protocols. No evidence of bacterial, parasitic, or fungal infection was found, and serologies on cage littermates were negative for 12 of the most common murine viruses.\n(§2) Mice were anesthetized with avertin, and lungs were lavaged four times with 0.3 ml PBS, and 0.95-1 ml of pooled lavage fluid was recovered. Total cell counts were determined using a hemocytometer, and aliquots were cytospun onto microscope slides and stained with Diff-Quick (Dade Nehring) for cellular differentials. Lungs were then infused with 4% paraformaldehyde in PBS at 25 cm of pressure and then fixed overnight at 4° C. Fixed lung samples were rinsed in PBS, dehydrated, and embedded in paraffin. Sections (5 μm) were collected on microscope slides and stained with hematoxylin and eosin (H&E; Shandon-Lipshaw) or Masson's trichrome (EM Science), according to manufacturer's instructions."}, "[3]": {"test_system": "ADA-deficient (ADA−/−) mice", "assay": "Alveolar airspace size (histology, mean chord length) in ADA-deficient mice", "type": "in vivo, mouse", "settings": "1 mg/kg ip twice daily for 17 days", "experimental": "Mice treated by intraperitoneal (ip) injection twice daily with 1 mg/kg 3-ethyl-1-propyl -8-{1-[(3-trifluoromethylphenyl)methyl]pyrazol-4-yl}1,3,7-trihydropurine-2,6-dione. The specific protocol is as follows: ADA-deficient (ADA−/−) or ADA containing (ADA+) mice were identified at birth by screening of ADA enzymatic activity in the blood. ADA−/− mice were maintained on ADA enzyme therapy from postnatal day 2 until postnatal day 21. At this stage, treatments with 3-ethyl-1-propyl-8-{1-[(3-trifluoromethylphenyl)methyl] pyrazol -4-yl}-1,3,7-trihydropurine-2,6-dione or vehicle controls (corn oil/ethanol/DMSO) were initiated. […]\nMice were anesthetized with avertin, and lungs were lavaged four times with 0.3 ml PBS, and 0.95-1 ml of pooled lavage fluid was recovered. Total cell counts were determined using a hemocytometer, and aliquots were cytospun onto microscope slides and stained with Diff-Quick (Dade Nehring) for cellular differentials. […]\nThe size of alveolar airways was determined in pressure infused lungs by measuring mean chord lengths on H&E-stained lung sections (Blackburn et al. (2000) J Exp Med 192:159-170). […] This line grid was subtracted from the lung images using Image-Pro® Plus (Media Cybernetics) image analysis software, and the resultant lines were measured and averaged to give the mean chord length of the alveolar airways. […]"}, "[4]": {"test_system": "ADA-deficient (ADA−/−) mice", "assay": "Whole lung transcript levels by quantitative real-time RT-PCR in ADA-deficient mice", "type": "in vivo, mouse", "settings": "1 mg/kg ip twice daily for 17 days, vs vehicle-treated ADA−/− mice", "experimental": "as §1\nMice were anesthetized and the lungs were rapidly removed and frozen in liquid nitrogen. RNA was isolated from frozen lung tissue using TRIzol Reagent (Life Technologies Inc., Grand Island, N.Y., USA). RNA samples were then DNase treated and subjected to quantitative real-time RT-PCR. The primers, probes and procedures for real-time RT-PCR were described previously in Sun et al. (2005) J Clin Invest 115:35-43. Reactions were carried out on a Smart Cycler rapid thermal cycler system (Cepheid, Sunnyvale, Calif.). Specific transcript levels were determined using Smart Cycler analysis software through comparison to a standard curve generated from the PCR amplification of template dilutions."}, "[5]": {"test_system": "ADA-deficient (ADA−/−) mice", "assay": "Bronchiolalveolar lavage (BAL) cell counts and cellular differentials in ADA-deficient mice", "type": "in vivo, mouse", "settings": "1 mg/kg ip twice daily for 17 days", "experimental": "as §1, §2"}, "[6]": {"test_system": "ADA-deficient (ADA−/−) mice", "assay": "α-smooth muscle actin immunostaining of lung myofibroblasts in ADA-deficient mice", "type": "in vivo, mouse", "settings": "1 mg/kg ip twice daily for 17 days", "experimental": "as §1, with “examined. […]” for “examined.”"}, "[7]": {"settings": "ADA−/− mice, vs vehicle-treated ADA−/− mice"}, "[8]": {"settings": "listed as adenosine A2B receptor antagonist, 1 mg/kg"}}, "note": "Entries after “also recorded” stand apart in the source; their conditions may differ.", "data": [{"smiles": "CCCn1c(=O)c2[nH]c(-c3cnn(Cc4cccc(C(F)(F)F)c4)c3)nc2n(CC)c1=O", "note": "[3-ethyl-1-propyl-8-(1-{[3-(trifluoromethyl)phenyl]methyl}pyrazol-4-yl)-1,3,7-trihydropurine-2,6-dione]", "values": [{"measurement": "collagen deposition in the lungs (Masson's trichrome)", "setting": "[1]; ADA+ control mice", "result": "little to no"}, {"measurement": "collagen deposition in the airways (Masson's trichrome)", "setting": "[1]; ADA−/− mice", "result": "reduction"}, {"measurement": "increase in collagen production: collagen protein levels in BAL fluid", "setting": "[1]; [7]", "result": "largely prevented"}, {"measurement": "alveolar airway simplification (H&E histology)", "setting": "[2]; ADA+ control mice", "result": "not evident"}, {"measurement": "pulmonary inflammation (H&E histology)", "setting": "[2]; ADA+ control mice", "result": "not evident"}, {"measurement": "pulmonary inflammation and airway destruction", "setting": "[2]; ADA−/− mice", "result": "significant reduction"}, {"measurement": "alveolar airway simplification (H&E histology)", "setting": "[2]; [7]", "result": "significant decrease"}, {"measurement": "pulmonary inflammation (H&E histology)", "setting": "[2]; [7]", "result": "significant decrease"}, {"measurement": "outward signs of severe respiratory distress (rapid breathing and hunched posture)", "setting": "[2]; ADA−/− mice, seen in vehicle-treated or untreated ADA−/− mice", "result": "not observed"}, {"measurement": "distal airway enlargement (histology)", "setting": "[3]", "result": "prevented"}, {"measurement": "distal airway size (mean cord length)", "setting": "[3]", "result": "agreed with the histological observations"}, {"measurement": "Eotaxin I level, whole lung RNA", "setting": "[4]", "result": "significantly lower"}, {"measurement": "IL-4 level, whole lung RNA", "setting": "[4]", "result": "did not change"}, {"measurement": "IL-5 level, whole lung RNA", "setting": "[4]", "result": "did not change"}, {"measurement": "IL-6 level, whole lung RNA", "setting": "[4]", "result": "significantly lower"}, {"measurement": "MMP-9 expression, whole lung RNA", "setting": "[4]", "result": "diminished"}, {"measurement": "MMP-12 expression, whole lung RNA", "setting": "[4]", "result": "diminished"}, {"measurement": "RANTES level, whole lung RNA", "setting": "[4]", "result": "did not change"}, {"measurement": "TARC level, whole lung RNA", "setting": "[4]", "result": "significantly lower"}, {"measurement": "TIMP-1 expression, whole lung RNA", "setting": "[4]", "result": "diminished"}, {"measurement": "TNFα level, whole lung RNA", "setting": "[4]", "result": "did not change"}, {"measurement": "increase in collagen production: whole lung α1-procollagen transcript levels", "setting": "[4]", "result": "largely prevented"}, {"measurement": "monocyte chemoattractant proteins (MCPs) level, whole lung RNA", "setting": "[4]", "result": "did not change"}, {"measurement": "TGF-β1 expression (transcripts), whole lung", "setting": "[4]; [8]", "result": "lower levels; also recorded: decreased"}, {"measurement": "osteopontin (OPN) expression (transcripts), whole lung", "setting": "[4]; [8]", "result": "lower levels; also recorded: decreased"}, {"measurement": "plasminogen activator inhibitor-1 (PAI-1) expression (transcripts), whole lung", "setting": "[4]; [8]", "result": "lower levels; also recorded: decreased"}, {"measurement": "airway inflammation", "setting": "[5]", "result": "significant decrease"}, {"measurement": "alveolar macrophage activation (BAL cells)", "setting": "[5]", "result": "reduction"}, {"measurement": "alveolar macrophages in BAL", "setting": "[5]", "result": "reduction"}, {"measurement": "eosinophils in BAL", "setting": "[5]", "result": "reduction"}, {"measurement": "lymphocytes in BAL", "setting": "[5]", "result": "reduction"}, {"measurement": "neutrophils in BAL", "setting": "[5]", "result": "reduction"}, {"measurement": "number of total cells recovered from BAL", "setting": "[5]; vs vehicle-treated ADA−/− mice", "result": "significant reduction"}, {"measurement": "α-sma positive cells in the distal airways (myofibroblast accumulation)", "setting": "[6]", "result": "Few to no"}]}]}
